Data from US20240010684A1, “MASP INHIBITORY COMPOUNDS AND USES THEREOF” (BAYER AKTIENGESELLSCHAFT, priority 2020, published 2024).
Where a SMILES comes first, the peptide text is derived from it. Bridges are numbered along the chain shown (N, C = ends). Triazole bridges read from a SMILES are 1,4-linked. [ ]: non-standard residue; d: D form. Oic = O=C(O)[C@@H]1C[C@@H]2CCCC[C@@H]2N1; Dap(N3) = [N-]=[N+]=NC[C@H](N)C(=O)O; tBuAla = CC(C)(C)C[C@H](N)C(=O)O; Pen = CC(C)(S)[C@H](N)C(=O)O; NMeC = CN[C@@H](CS)C(=O)O; Pra = C#CC[C@H](N)C(=O)O; Abu = CC[C@H](N)C(=O)O; Ahx = NCCCCCC(=O)O

How the values were obtained:
human MASP1 = human MASP1 (Homo sapiens (Human), UniProt P48740); assay: Biochemical human MASP1 assay (FRET substrate); conditions: Average IC50; recombinant human MASP1; read-out: human MASP1 IC50
human MASP1, sequence (P48740 other isoform, or with tags, fused parts or gaps): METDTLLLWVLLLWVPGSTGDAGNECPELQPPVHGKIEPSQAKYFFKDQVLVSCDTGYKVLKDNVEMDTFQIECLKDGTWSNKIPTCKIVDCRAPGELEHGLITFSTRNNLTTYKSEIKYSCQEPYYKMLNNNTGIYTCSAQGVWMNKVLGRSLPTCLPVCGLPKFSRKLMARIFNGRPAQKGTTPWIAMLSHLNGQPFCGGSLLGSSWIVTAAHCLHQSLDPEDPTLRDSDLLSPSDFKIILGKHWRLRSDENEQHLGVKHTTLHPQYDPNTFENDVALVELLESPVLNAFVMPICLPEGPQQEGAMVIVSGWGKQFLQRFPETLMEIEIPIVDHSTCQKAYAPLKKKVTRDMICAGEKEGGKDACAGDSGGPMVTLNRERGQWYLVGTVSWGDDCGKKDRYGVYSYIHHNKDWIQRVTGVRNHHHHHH
Text: A truncated cDNA sequence of human MASP1 encoding the fragment corresponding to the amino acids 297-699 with a C-terminal His Tag and N-terminal Ig-kappa secretion signal (SEQ ID No: 2) was subcloned into the mammalian expression vector pcDNA3.1 (Invitrogen).
The MASP1 or MASP2 expression vectors were transfected into the HEK293 (ATCC No. CRL-1573) cell line using Lipofectamine LTX® Reagent (Thermo-Fischer), as described by the manufacturer. The mature form of the recombinant human MASP1 and MASP2 proteases were secreted into the culture medium. The MASP1 and MASP2 proteins were purified from the conditioned media by affinity chromatography on Ni-NTA Superflow resin (Qiagen) as described by the manufacturer.
2.2 Biochemical Human MASP1 Assay
Recombinant human MASP1 enzyme produced in the HEK 293 cells was diluted in the reaction buffer (50 mM HEPES pH 8,0; 100 mM NaCl; 0,01% CHAPS; 0.5 mM Gluthathione) to the concentration of 20 nM and 25 μl was transferred into each single well of 384-well white microtiter plate (Greiner Bio One 781075). 1 μl of the inhibitor compound solution (dissolved in DMSO, at the corresponding concentration) or pure DMSO as a control was added to the same wells. The enzymatic reaction was initiated by addition of 25 μl of 20 μM solution of the FRET substrate ABZ-[…]-Lys (Dnp)-NH2; (ABZ-2-aminobenzoyl; DNP 2,4-dinitrophenyl; custom synthesis by Jerini Peptide Technologies, Berlin) in the reaction buffer. The microtiter plate was incubated for 60-120 min at the temperature of 32 C. The increase of fluorescence intensity was measured in appropriate fluorescence plate reader (e.g. TECAN Ultra) using excitation wavelength of 320 nm and emission wavelength of 420 nm. IC50 values were calculated from percentage of inhibition of human MASP1 activity as a function of test compound concentration.

human MASP2 = human MASP2 (Homo sapiens (Human), UniProt O00187); assay: Biochemical human MASP2 assay (FRET substrate); conditions: Average IC50; recombinant human MASP2; read-out: human MASP2 IC50
human MASP2, sequence (O00187 other isoform, or with tags, fused parts or gaps): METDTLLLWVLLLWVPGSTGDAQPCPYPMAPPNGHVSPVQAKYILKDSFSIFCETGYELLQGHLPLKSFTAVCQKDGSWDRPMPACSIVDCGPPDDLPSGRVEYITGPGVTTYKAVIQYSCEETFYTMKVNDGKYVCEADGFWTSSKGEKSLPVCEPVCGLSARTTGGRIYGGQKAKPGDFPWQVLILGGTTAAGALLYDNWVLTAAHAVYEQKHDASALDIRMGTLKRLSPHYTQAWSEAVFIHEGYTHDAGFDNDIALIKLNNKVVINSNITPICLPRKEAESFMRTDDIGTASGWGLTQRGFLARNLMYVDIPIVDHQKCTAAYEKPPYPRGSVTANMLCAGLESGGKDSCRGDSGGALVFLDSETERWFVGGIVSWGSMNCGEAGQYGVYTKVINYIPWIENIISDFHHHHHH
Text: The MASP1 or MASP2 expression vectors were transfected into the HEK293 (ATCC No. CRL-1573) cell line using Lipofectamine LTX® Reagent (Thermo-Fischer), as described by the manufacturer. The mature form of the recombinant human MASP1 and M[…] were secreted into the culture medium. The MASP1 and M[…] were purified from the conditioned media by affinity chromatography on Ni-NTA Superflow resin (Qiagen) as described by the manufacturer. 2.3 Biochemical Human MASP2 Assay […] The enzymatic reaction was initiated by addition of 25 μl of 60 μM solution of the FRET substrate DABCYL-[…]; […] The microtiter plate was incubated for 60-120 min at the temperature of 32 C. The increase of fluorescence intensity was measured in appropriate fluorescence plate reader (e.g. TECAN Ultra) using excitation wavelength of 340 nm and emission wavelength of 490 nm. IC50 values were calculated from percentage of inhibition of human MASP2 activity as a function of test compound concentration.

Row | Structure (SMILES) | IC50 (human MASP1) [nM] | IC50 (human MASP2) [nM]
1 | CC[C@H](C)[C@@H]1NC(=O)CNC(=O)[C@H](CO)NC(=O)CNC(=O)[C@H](CO)NC(=O)[C@H](CC(=O)O)NC(=O)[C@@H]2CCCN2C(=O)[C@H]([C@@H](C)CC)NC(=O)[C@@H]2CSSC[C@H](NC1=O)C(=O)N[C@@H](CO)C(=O)N[C@@H](CCCNC(=N)N)C(=O)N[C@@H](CO)C(=O)N[C@@H](CC(C)C)C(=O)N1CCC[C@H]1C(=O)N1CCC[C@H]1C(=O)N[C@@H]([C@@H](C)CC)C(=O)N2 [Example 21] (cyclo(CIPDSGSGICSRSLPPI); disulfide 1-10) | 170 | 120
2 | CC[C@H](C)[C@@H]1NC(=O)CNC(=O)CCCCCNC(=O)C[C@@H](C(N)=O)NC(=O)[C@@H]2CCCN2C(=O)[C@H]([C@@H](C)CC)NC(=O)[C@H]2NC(=O)[C@H]([C@@H](C)CC)NC(=O)[C@@H]3CCCN3C(=O)[C@@H]3CCCN3C(=O)[C@H](CC(C)(C)C)NC(=O)[C@H](CO)NC(=O)[C@H](CCCNC(=N)N)NC(=O)[C@H](CO)NC(=O)[C@H](CSSC2(C)C)NC1=O [Example 48] ([Ahx]GICSRS[tBuAla]PPI[Pen]IPD-NH2; disulfide 4-12; lactam N-15) | 10 | 70
3 | CC[C@@H]1NC(=O)CCCCCNC(=O)[C@H](CC(=O)O)NC(=O)[C@@H]2CCCN2C(=O)[C@H]([C@@H](C)CC)NC(=O)[C@@H]2CSSC[C@H](NC(=O)[C@H]([C@@H](C)CC)NC1=O)C(=O)N[C@@H](CO)C(=O)N[C@@H](CCCNC(=N)N)C(=O)N[C@@H](CO)C(=O)N[C@@H](CC(C)(C)C)C(=O)N1CCC[C@H]1C(=O)N1CCC[C@H]1C(=O)N[C@@H]([C@@H](C)CC)C(=O)N2C [Example 33] (cyclo([Abu]ICSRS[tBuAla]PPI[NMeC]IPD[Ahx]); disulfide 3-11) | 28 | 62
4 | CC[C@H](C)[C@@H]1NC(=O)[C@H](C)NC(=O)CCCCCNC(=O)[C@H](CC(=O)O)NC(=O)[C@@H]2CCCN2C(=O)[C@H]([C@@H](C)CC)NC(=O)[C@H]2NC(=O)[C@H]([C@@H](C)CC)NC(=O)[C@@H]3CCCN3C(=O)[C@@H]3CCCN3C(=O)[C@H](CC(C)(C)C)NC(=O)[C@H](CO)NC(=O)[C@H](CCCNC(=N)N)NC(=O)[C@H](CO)NC(=O)[C@H](CSSC2(C)C)NC1=O [Example 27] (cyclo(AICSRS[tBuAla]PPI[Pen]IPD[Ahx]); disulfide 3-11) | 9.1 | 37.5
5 | CC[C@H](C)[C@@H]1NC(=O)[C@H](C)NC(=O)CNC(=O)[C@H](C)NC(=O)C[C@@H](C(N)=O)NC(=O)[C@@H]2CCCN2C(=O)[C@H]([C@@H](C)CC)NC(=O)[C@H]2NC(=O)[C@H]([C@@H](C)CC)NC(=O)[C@@H]3C[C@@H]4CCCC[C@@H]4N3C(=O)[C@@H]3CCCN3C(=O)[C@H](CC(C)C)NC(=O)[C@H](CO)NC(=O)[C@H](CCCNC(=N)N)NC(=O)[C@H](CO)NC(=O)[C@H](CSSC2(C)C)NC1=O [Example 41] (AGAICSRSLP[Oic]I[Pen]IPD-NH2; disulfide 5-13; lactam N-16) | 5.9 | 190
6 | CC[C@H](C)[C@@H]1NC(=O)CNC(=O)CNC(=O)[C@@H](C)NC(=O)[C@H](CC(=O)O)NC(=O)[C@@H]2CCCN2C(=O)[C@H]([C@@H](C)CC)NC(=O)[C@@H]2CSSC[C@H](NC1=O)C(=O)N[C@@H](CO)C(=O)N[C@@H](CCCNC(=N)N)C(=O)N[C@@H](CO)C(=O)N[C@@H](CC(C)C)C(=O)N1CCC[C@H]1C(=O)N1CCC[C@H]1C(=O)N[C@@H]([C@@H](C)CC)C(=O)N2 [Example 19] (cyclo(CIPD[dA]GGICSRSLPPI); disulfide 1-9) | 49 | 210
7 | CC[C@H](C)[C@@H]1NC(=O)CNC(=O)CCCCCNC(=O)[C@H](CC(=O)O)NC(=O)[C@@H]2CCCN2C(=O)[C@H]([C@@H](C)CC)NC(=O)[C@@H]2CSSC[C@H](NC1=O)C(=O)N[C@@H](CO)C(=O)N[C@@H](CCCNC(=N)N)C(=O)N[C@@H](CO)C(=O)N[C@@H](CC(C)(C)C)C(=O)N1CCC[C@H]1C(=O)N1CCC[C@H]1C(=O)N[C@@H]([C@@H](C)CC)C(=O)N2C [Example 30] (cyclo([Ahx]GICSRS[tBuAla]PPI[NMeC]IPD); disulfide 4-12) | 16 | 65
8 | CC[C@H](C)[C@@H]1NC(=O)[C@H](C)NC(=O)CCCCCNC(=O)CC[C@@H](C(N)=O)NC(=O)[C@@H]2CCCN2C(=O)[C@H]([C@@H](C)CC)NC(=O)[C@H]2NC(=O)[C@H]([C@@H](C)CC)NC(=O)[C@@H]3C[C@@H]4CCCC[C@@H]4N3C(=O)[C@@H]3CCCN3C(=O)[C@H](CC(C)C)NC(=O)[C@H](CO)NC(=O)[C@H](CCCNC(=N)N)NC(=O)[C@H](CO)NC(=O)[C@H](CSSC2(C)C)NC1=O [Example 74] ([Ahx]AICSRSLP[Oic]I[Pen]IPE-NH2; disulfide 4-12; lactam N-15) | 14 | 160
9 | CC[C@H](C)[C@@H]1NC(=O)CNC(=O)CCCCCNC(=O)C[C@@H](C(N)=O)NC(=O)[C@@H]2CCCN2C(=O)[C@H]([C@@H](C)CC)NC(=O)[C@@H]2CSSC[C@H](NC1=O)C(=O)N[C@@H](CO)C(=O)N[C@@H](CCCNC(=N)N)C(=O)N[C@@H](CO)C(=O)N[C@@H](CC(C)(C)C)C(=O)N1CCC[C@H]1C(=O)N1CCC[C@H]1C(=O)N[C@@H]([C@@H](C)CC)C(=O)N2C [Example 40] ([Ahx]GICSRS[tBuAla]PPI[NMeC]IPD-NH2; disulfide 4-12; lactam N-15) | 7.1 | 90
10 | CC[C@H](C)[C@@H]1NC(=O)CNC(=O)CCCCCNC(=O)C[C@@H](C(N)=O)NC(=O)[C@@H]2CCCN2C(=O)[C@H]([C@@H](C)CC)NC(=O)[C@H]2NC(=O)[C@H]([C@@H](C)CC)NC(=O)[C@@H]3C[C@@H]4CCCC[C@@H]4N3C(=O)[C@@H]3CCCN3C(=O)[C@H](CC(C)C)NC(=O)[C@H](CO)NC(=O)[C@H](CCCNC(=N)N)NC(=O)[C@H](CO)NC(=O)[C@H](CSSC2(C)C)NC1=O [Example 49] ([Ahx]GICSRSLP[Oic]I[Pen]IPD-NH2; disulfide 4-12; lactam N-15) | 19 | 140
11 | CC[C@H](C)[C@@H]1NC(=O)CNC(=O)CNC(=O)[C@H](C)NC(=O)[C@H](CC(=O)O)NC(=O)[C@@H]2CCCN2C(=O)[C@H]([C@@H](C)CC)NC(=O)[C@@H]2CSSC[C@H](NC1=O)C(=O)N[C@@H](CO)C(=O)N[C@@H](CCCNC(=N)N)C(=O)N[C@@H](CO)C(=O)N[C@@H](CC(C)C)C(=O)N1CCC[C@H]1C(=O)N1CCC[C@H]1C(=O)N[C@@H]([C@@H](C)CC)C(=O)N2 [Example 18] (cyclo(AGGICSRSLPPICIPD); disulfide 5-13) | 50 | 15
12 | CC[C@H](C)[C@@H]1NC(=O)[C@H](C)NC(=O)CNC(=O)[C@@H](N)Cn2cc(nn2)C[C@@H](C(N)=O)NC(=O)[C@@H]2CCCN2C(=O)[C@H]([C@@H](C)CC)NC(=O)[C@@H]2CSSC[C@H](NC1=O)C(=O)N[C@@H](CO)C(=O)N[C@@H](CCCNC(=N)N)C(=O)N[C@@H](CO)C(=O)N[C@@H](CC(C)(C)C)C(=O)N1CCC[C@H]1C(=O)N1CCC[C@H]1C(=O)N[C@@H]([C@@H](C)CC)C(=O)N2 [Example 81] (H-[Dap(N3)]GAICSRS[tBuAla]PPICIP[Pra]-NH2; triazole 1-16; disulfide 5-13) | 18 | 230
